Test results published in ChEMBL document CHEMBL3616426 (Eur J Med Chem, 2015).
pEC50: −log10 of the molar value.

Tests used:
[1] = target: T1, Estrogen receptor (Homo sapiens) (UniProt P03372); assay: Antagonist activity at ERalpha (301 to 553 amino acid residues) (unknown origin) assessed as inhibition of E2 induced interaction with SRC1 after 24 hrs by yeast-two-hybrid assay; parameters: concentration or dose not given beside the values
T1 sequence (whole entry): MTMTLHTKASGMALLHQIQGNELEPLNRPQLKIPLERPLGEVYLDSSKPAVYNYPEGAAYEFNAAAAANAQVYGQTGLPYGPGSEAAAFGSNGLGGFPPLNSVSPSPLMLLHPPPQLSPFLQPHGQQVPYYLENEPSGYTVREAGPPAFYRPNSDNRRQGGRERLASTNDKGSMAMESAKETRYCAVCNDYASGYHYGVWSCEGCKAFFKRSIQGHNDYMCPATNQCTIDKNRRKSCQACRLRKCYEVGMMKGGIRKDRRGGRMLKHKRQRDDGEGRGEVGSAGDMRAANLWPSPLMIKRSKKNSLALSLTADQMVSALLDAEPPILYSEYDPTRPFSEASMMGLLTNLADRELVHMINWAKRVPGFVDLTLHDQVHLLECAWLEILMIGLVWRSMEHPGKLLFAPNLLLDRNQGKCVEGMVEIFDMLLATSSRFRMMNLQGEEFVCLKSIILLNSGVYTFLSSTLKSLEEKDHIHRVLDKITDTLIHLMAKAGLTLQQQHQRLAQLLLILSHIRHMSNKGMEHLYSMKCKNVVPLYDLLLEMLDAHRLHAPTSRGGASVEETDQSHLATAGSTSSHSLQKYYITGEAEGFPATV

Rattus norvegicus [2] = assay: Antiosteoporotic activity in ovariectomized Sprague-Dawley rat assessed as bone volume /tissue volume at 1 ug/kg, po qd at 6th week by micro-CT analysis (reference value: 41.33 +/- 5.04%); assay type: functional
Rattus norvegicus [3] = assay: Antiosteoporotic activity in ovariectomized Sprague-Dawley rat assessed as bone volume /tissue volume at 1 ug/kg, po qd at 18th week by micro-CT analysis (reference value: 27.36 +/- 1.99%); assay type: functional
Rattus norvegicus [4] = assay: Antiosteoporotic activity in ovariectomized Sprague-Dawley rat assessed as bone volume /tissue volume at 3 ug/kg, po qd at 18th week by micro-CT analysis (reference value: 27.36 +/- 1.99%); assay type: functional
Rattus norvegicus [5] = assay: Antiosteoporotic activity in ovariectomized Sprague-Dawley rat assessed as trabecular thickness at 3 ug/kg, po qd at 12th week by micro-CT analysis (reference value: 0.070 +/- 0.0063 millimeter); assay type: functional, Trabecula
Rattus norvegicus [6] = assay: Antiosteoporotic activity in ovariectomized Sprague-Dawley rat assessed as trabecular thickness at 1 ug/kg, po qd at 18th week by micro-CT analysis (reference value: 0.103 +/- 0.0044 millimeter); assay type: functional, Trabecula
Rattus norvegicus [7] = assay: Antiosteoporotic activity in ovariectomized Sprague-Dawley rat assessed as trabecular thickness at 3 ug/kg, po qd at 18th week by micro-CT analysis (reference value: 0.103 +/- 0.0044 millimeter); assay type: functional, Trabecula
Rattus norvegicus [8] = assay: Antiosteoporotic activity in ovariectomized Sprague-Dawley rat assessed as trabecular separation at 10 ug/kg, po qd at 18th week by micro-CT analysis (reference value: 0.234 +/- 0.021 millimeter); assay type: functional, Trabecula
Rattus norvegicus [9] = assay: Antiosteoporotic activity in ovariectomized Sprague-Dawley rat assessed as serum osteocalcin level at 1 ug/kg, po qd at 12th week by enzyme immunoassay (reference value: 1055.8 +/- 14 ng/ml); assay type: functional
Rattus norvegicus [10] = assay: Antiosteoporotic activity in ovariectomized Sprague-Dawley rat assessed as serum osteocalcin level at 10 ug/kg, po qd at 12th week by enzyme immunoassay (reference value: 1055.8 +/- 14 ng/ml); assay type: functional
Rattus norvegicus [11] = assay: Antiosteoporotic activity in ovariectomized Sprague-Dawley rat assessed as serum osteocalcin level at 1 ug/kg, po qd at 18th week by enzyme immunoassay (reference value: 1118.9 +/- 37.77 ng/ml); assay type: functional
Rattus norvegicus [12] = assay: Antiosteoporotic activity in ovariectomized Sprague-Dawley rat assessed as serum osteocalcin level at 3 ug/kg, po qd at 18th week by enzyme immunoassay (reference value: 1118.9 +/- 37.77 ng/ml); assay type: functional
Estrogen receptor beta = Estrogen receptor beta (Homo sapiens, UniProt Q92731); assay: Agonist activity at ERbeta (248 to 510 amino acid residues) (unknown origin) assessed as induction of interaction with SRC1 after 24 hrs by yeast two-hybrid assay
Estrogen receptor beta, sequence (Q92731 whole entry, the tested form may be a part): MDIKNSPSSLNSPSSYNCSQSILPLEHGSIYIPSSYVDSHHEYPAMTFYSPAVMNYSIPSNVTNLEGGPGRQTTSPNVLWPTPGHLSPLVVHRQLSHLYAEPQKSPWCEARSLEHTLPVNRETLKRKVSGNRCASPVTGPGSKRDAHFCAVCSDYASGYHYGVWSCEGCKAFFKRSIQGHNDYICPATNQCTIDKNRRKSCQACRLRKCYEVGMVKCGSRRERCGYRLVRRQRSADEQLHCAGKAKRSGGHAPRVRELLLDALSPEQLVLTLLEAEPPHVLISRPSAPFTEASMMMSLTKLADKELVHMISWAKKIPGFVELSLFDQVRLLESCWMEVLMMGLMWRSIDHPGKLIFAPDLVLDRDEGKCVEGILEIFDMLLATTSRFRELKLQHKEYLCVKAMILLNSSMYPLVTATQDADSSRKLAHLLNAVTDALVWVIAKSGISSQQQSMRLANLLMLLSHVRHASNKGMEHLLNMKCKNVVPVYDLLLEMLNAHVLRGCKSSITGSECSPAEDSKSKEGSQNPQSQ

O=C1c2cc(O)cc(O)c2[C@@H](c2ccc(O)cc2)[C@@H]1c1cc(O)cc(O)c1 [ISOPAUCIFLORAL F]
Activity [1]: 9.45%
Activity (Rattus norvegicus [2]): 40.38%
Activity (Rattus norvegicus [3]): 35.56%
Activity (Rattus norvegicus [4]): 36.45%
Activity (Rattus norvegicus [5]): 0.085 mm
Activity (Rattus norvegicus [6]): 0.106 mm
Activity (Rattus norvegicus [7]): 0.102 mm
Activity (Rattus norvegicus [8]): 0.096 mm
Activity (Rattus norvegicus [9]): 1172.9 ng/mL
Activity (Rattus norvegicus [10]): 1156.07 ng/mL
Activity (Rattus norvegicus [11]): 812.1 ng/mL
Activity (Rattus norvegicus [12]): 713.24 ng/mL
pEC50 (Estrogen receptor beta): 4.33
